These results are taken from ChEMBL document CHEMBL3132847, “Pseudopeptides with a centrally positioned alkene-based disulphide bridge mimetic stimulate kallikrein-related peptidase 3 activity” (Medchemcomm, 2013).

Activity calls are given as the source filed them. No cut-off for these calls is given here. Bridge positions count the residues as written; N and C are the ends. Square brackets hold non-standard residues; d marks the D form. Peptide text beside a SMILES is read from it. AllylGly = C=CC[C@H](N)C(=O)O; Aoc = NCCCCCCCC(=O)O

For the first assay, the target named is T1, Prostate-specific antigen (Homo sapiens) (UniProt P07288).
T1 sequence (whole entry): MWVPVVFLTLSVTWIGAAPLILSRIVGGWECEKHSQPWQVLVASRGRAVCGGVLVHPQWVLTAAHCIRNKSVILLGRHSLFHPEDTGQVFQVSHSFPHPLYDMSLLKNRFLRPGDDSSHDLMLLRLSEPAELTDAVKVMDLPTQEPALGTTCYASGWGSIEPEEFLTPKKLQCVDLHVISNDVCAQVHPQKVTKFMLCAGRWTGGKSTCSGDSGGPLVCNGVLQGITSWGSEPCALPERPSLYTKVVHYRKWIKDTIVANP
Briefly: Stimulation of KLK3 (unknown origin) proteolytic activity using chromogenic chymotrypsin MeO-Suc-Arg-Pro-Tyr-pNA substrate at 200 ug/ml pre-incubated for 30 mins before addition of substrate by […] relative to untreated control.
Consider `CC(C)[C@@H]1NC(=O)[C@@H](N)CSSC[C@@H](C(=O)O)NC(=O)[C@H]([C@@H](C)O)NC(=O)[C@H](Cc2c[nH]c3ccccc23)NC(=O)[C@@H]2C/C=C/C[C@H](NC(=O)[C@H](Cc3ccc(O)cc3)NC(=O)[C@H](C)NC1=O)C(=O)N[C@@H](Cc1ccccc1)C(=O)N[C@@H](CCC(=O)O)C(=O)N[C@@H](Cc1cnc[nH]1)C(=O)N[C@@H](Cc1cnc[nH]1)C(=O)N2` (H-CVAY[AllylGly]FEHH[AllylGly]WTC-OH; disulfide 1-13; staple (E) 5-10), for which the fold change (FC) turned out to be 4.

Compound `CC[C@H](C)[C@@H]1NC(=O)[C@@H]2C/C=C/C[C@H](NC(=O)[C@H](Cc3cnc[nH]3)NC(=O)[C@H](C)NC(=O)[C@H](C)NC1=O)C(=O)N[C@@H](Cc1c[nH]c3ccccc13)C(=O)N[C@@H]([C@@H](C)O)C(=O)N[C@H](C(=O)O)CSSC[C@H](N)C(=O)N[C@@H](C(C)C)C(=O)N[C@@H](C)C(=O)N[C@@H](Cc1ccc(O)cc1)C(=O)N2` (H-CVAY[AllylGly]IAAH[AllylGly]WTC-OH; disulfide 1-13; staple (E) 5-10) showed a fold change (FC) of 4.

The next assay concerns the target T1, Prostate-specific antigen (Homo sapiens). The assay is described as follows: Stimulation of KLK3 (unknown origin) proteolytic activity using chromogenic chymotrypsin MeO-Suc-Arg-Pro-Tyr-pNA substrate at 20 ug/ml pre-incubated for 30 mins before addition of substrate by […] relative to untreated control.
As for `CC[C@H](C)[C@@H]1NC(=O)[C@@H](NC(=O)[C@H](Cc2ccc(O)cc2)NC(C)=O)C/C=C/C[C@@H](C(=O)N[C@@H](Cc2c[nH]c3ccccc23)C(N)=O)NC(=O)[C@H](Cc2cnc[nH]2)NC(=O)[C@H](Cc2cnc[nH]2)NC(=O)[C@H](CCC(=O)O)NC1=O` (Ac-Y[AllylGly]IEHH[AllylGly]W-NH2; staple (E) 2-7), the outcome was inactive.

As to `CC[C@H](C)[C@@H]1NC(=O)[C@@H](NC(=O)[C@H](Cc2ccc(O)cc2)NC(C)=O)C/C=C/C[C@@H](C(=O)N[C@@H](Cc2c[nH]c3ccccc23)C(=O)O)NC(=O)[C@H](Cc2cnc[nH]2)NC(=O)[C@H](Cc2cnc[nH]2)NC(=O)[C@H](CCC(=O)O)NC1=O` (Ac-Y[AllylGly]IEHH[AllylGly]W-OH; staple (E) 2-7), the outcome was inactive.

For the compound `CC[C@H](C)[C@@H]1NC(=O)[C@@H]2CSSC[C@H](NC(=O)[C@H](Cc3cnc[nH]3)NC(=O)[C@H](Cc3cnc[nH]3)NC(=O)[C@H](CCC(=O)O)NC1=O)C(=O)N[C@@H](Cc1c[nH]c3ccccc13)C(=O)N[C@@H](C)C(=O)N[C@H](C(N)=O)CSSC[C@H](N)C(=O)N[C@@H](C)C(=O)N[C@@H](C)C(=O)N[C@@H](Cc1ccc(O)cc1)C(=O)N2` (H-CAAYCIEHHCWAC-NH2; disulfide 1-13, 5-10), the Activity turned out to be 127%.

`CC(C)[C@@H]1NC(=O)[C@@H](N)CSSC[C@@H](C(N)=O)NC(=O)[C@H]([C@@H](C)O)NC(=O)[C@H](Cc2c[nH]c3ccccc23)NC(=O)[C@H](C)NC(=O)[C@@H]2CSSC[C@H](NC(=O)[C@H](C)NC(=O)[C@H](Cc3ccc(O)cc3)NC(=O)[C@H](C)NC1=O)C(=O)N[C@@H](CCC(=O)O)C(=O)N[C@@H](Cc1cnc[nH]1)C(=O)N2` (H-CVAYACEHCAWTC-NH2; disulfide 1-13, 6-9) came in with an Activity of 84%.

As for `CC(C)[C@@H]1NC(=O)[C@@H](N)CSSC[C@@H](C(N)=O)NC(=O)[C@H]([C@@H](C)O)NC(=O)[C@H](Cc2c[nH]c3ccccc23)NC(=O)[C@@H]2CSSC[C@H](NC(=O)[C@H](Cc3ccc(O)cc3)NC(=O)[C@H](C)NC1=O)C(=O)N[C@@H](C)C(=O)N[C@@H](CCC(=O)O)C(=O)N[C@@H](Cc1cnc[nH]1)C(=O)N[C@@H](Cc1cnc[nH]1)C(=O)N2` (H-CVAYCAEHHCWTC-NH2; disulfide 1-13, 5-10), the Activity is 299%.

In the case of `CC(C)[C@@H]1NC(=O)[C@@H](N)CSSC[C@@H](C(N)=O)NC(=O)[C@H]([C@@H](C)O)NC(=O)[C@H](Cc2c[nH]c3ccccc23)NC(=O)[C@@H]2CSSC[C@H](NC(=O)[C@H](Cc3ccc(O)cc3)NC(=O)[C@H](C)NC1=O)C(=O)N[C@@H](Cc1ccccc1)C(=O)N[C@@H](CCC(=O)O)C(=O)N[C@@H](Cc1cnc[nH]1)C(=O)N[C@@H](Cc1cnc[nH]1)C(=O)N2` (H-CVAYCFEHHCWTC-NH2; disulfide 1-13, 5-10), the Activity is 583%.

As for `CC(C)[C@@H]1NC(=O)[C@@H](N)CSSC[C@@H](C(N)=O)NC(=O)[C@H]([C@@H](C)O)NC(=O)[C@H](Cc2c[nH]c3ccccc23)NC(=O)[C@@H]2CSSC[C@H](NC(=O)[C@H](Cc3ccc(O)cc3)NC(=O)[C@H](C)NC1=O)C(=O)NCC(=O)N[C@@H](CCC(=O)O)C(=O)N[C@@H](Cc1cnc[nH]1)C(=O)N[C@@H](Cc1cnc[nH]1)C(=O)N2` (H-CVAYCGEHHCWTC-NH2; disulfide 1-13, 5-10), the Activity was 152%.

`CC[C@H](C)[C@@H]1NC(=O)[C@@H]2CSSC[C@H](NC(=O)[C@H](C)NC(=O)[C@H](C)NC(=O)[C@H](C)NC1=O)C(=O)N[C@@H](Cc1c[nH]c3ccccc13)C(=O)N[C@@H]([C@@H](C)O)C(=O)N[C@H](C(N)=O)CSSC[C@H](N)C(=O)N[C@@H](C(C)C)C(=O)N[C@@H](C)C(=O)N[C@@H](Cc1ccc(O)cc1)C(=O)N2` (H-CVAYCIAAACWTC-NH2; disulfide 1-13, 5-10) had an Activity of 165%.

`CC[C@H](C)[C@@H]1NC(=O)[C@@H]2CSSC[C@H](NC(=O)[C@H](Cc3cnc[nH]3)NC(=O)[C@H](C)NC(=O)[C@H](C)NC1=O)C(=O)N[C@@H](Cc1c[nH]c3ccccc13)C(=O)N[C@@H]([C@@H](C)O)C(=O)N[C@H](C(N)=O)CSSC[C@H](N)C(=O)N[C@@H](C(C)C)C(=O)N[C@@H](C)C(=O)N[C@@H](Cc1ccc(O)cc1)C(=O)N2` (H-CVAYCIAAHCWTC-NH2; disulfide 1-13, 5-10) returned an Activity of 476%.

As for `CC[C@H](C)[C@@H]1NC(=O)[C@@H]2CSSC[C@H](NC(=O)[C@H](C)NC(=O)[C@H](Cc3cnc[nH]3)NC(=O)[C@H](C)NC1=O)C(=O)N[C@@H](Cc1c[nH]c3ccccc13)C(=O)N[C@@H]([C@@H](C)O)C(=O)N[C@H](C(N)=O)CSSC[C@H](N)C(=O)N[C@@H](C(C)C)C(=O)N[C@@H](C)C(=O)N[C@@H](Cc1ccc(O)cc1)C(=O)N2` (H-CVAYCIAHACWTC-NH2; disulfide 1-13, 5-10), the Activity amounted to 239%.

`CC[C@H](C)[C@@H]1NC(=O)[C@@H]2CSSC[C@H](NC(=O)[C@H](C)NC(=O)[C@H](C)NC(=O)[C@H](CCC(=O)O)NC1=O)C(=O)N[C@@H](Cc1c[nH]c3ccccc13)C(=O)N[C@@H]([C@@H](C)O)C(=O)N[C@H](C(N)=O)CSSC[C@H](N)C(=O)N[C@@H](C(C)C)C(=O)N[C@@H](C)C(=O)N[C@@H](Cc1ccc(O)cc1)C(=O)N2` (H-CVAYCIEAACWTC-NH2; disulfide 1-13, 5-10) registered an Activity of 226%.

For the compound `CC[C@H](C)[C@@H]1NC(=O)[C@@H]2CSSC[C@H](NC(=O)[C@H](Cc3cnc[nH]3)NC(=O)[C@H](Cc3cnc[nH]3)NC(=O)[C@H](CCC(=O)O)NC1=O)C(=O)N[C@@H](Cc1c[nH]c3ccccc13)C(=O)N[C@@H]([C@@H](C)O)C(=O)N[C@H](C(=O)O)CSSC[C@H](N)C(=O)N[C@@H](C(C)C)C(=O)N[C@@H](C)C(=O)N[C@@H](Cc1ccc(O)cc1)C(=O)N2` (H-CVAYCIEHHCWTC-OH; disulfide 1-13, 5-10), the Activity is 625%.

For the compound `CC(C)C[C@@H]1NC(=O)[C@@H]2CSSC[C@H](NC(=O)[C@H](Cc3cnc[nH]3)NC(=O)[C@H](Cc3cnc[nH]3)NC(=O)[C@H](CCC(=O)O)NC1=O)C(=O)N[C@@H](Cc1c[nH]c3ccccc13)C(=O)N[C@@H]([C@@H](C)O)C(=O)N[C@H](C(N)=O)CSSC[C@H](N)C(=O)N[C@@H](C(C)C)C(=O)N[C@@H](C)C(=O)N[C@@H](Cc1ccc(O)cc1)C(=O)N2` (H-CVAYCLEHHCWTC-NH2; disulfide 1-13, 5-10), the Activity worked out at 436%.

With `CC(C)[C@@H]1NC(=O)[C@@H](N)CSSC[C@@H](C(=O)O)NC(=O)[C@H]([C@@H](C)O)NC(=O)[C@H](Cc2c[nH]c3ccccc23)NC(=O)[C@@H]2C/C=C/C[C@H](NC(=O)[C@H](Cc3ccc(O)cc3)NC(=O)[C@H](C)NC1=O)C(=O)N[C@@H](Cc1ccccc1)C(=O)N[C@@H](CCC(=O)O)C(=O)N[C@@H](Cc1cnc[nH]1)C(=O)N[C@@H](Cc1cnc[nH]1)C(=O)N2` (H-CVAY[AllylGly]FEHH[AllylGly]WTC-OH; disulfide 1-13; staple (E) 5-10), the Activity is 223%.

`CC[C@H](C)[C@@H]1NC(=O)[C@@H]2C/C=C/C[C@H](NC(=O)[C@H](Cc3cnc[nH]3)NC(=O)[C@H](C)NC(=O)[C@H](C)NC1=O)C(=O)N[C@@H](Cc1c[nH]c3ccccc13)C(=O)N[C@@H]([C@@H](C)O)C(=O)N[C@H](C(=O)O)CSSC[C@H](N)C(=O)N[C@@H](C(C)C)C(=O)N[C@@H](C)C(=O)N[C@@H](Cc1ccc(O)cc1)C(=O)N2` (H-CVAY[AllylGly]IAAH[AllylGly]WTC-OH; disulfide 1-13; staple (E) 5-10): the Activity was found to be 225%.

Take `CC[C@H](C)[C@@H]1NC(=O)[C@@H]2C/C=C/C[C@H](NC(=O)[C@H](Cc3cnc[nH]3)NC(=O)[C@H](Cc3cnc[nH]3)NC(=O)[C@H](CCC(=O)O)NC1=O)C(=O)N[C@@H](Cc1c[nH]c3ccccc13)C(=O)N[C@@H]([C@@H](C)O)C(=O)N[C@H](C(=O)O)CSSC[C@H](N)C(=O)N[C@@H](C(C)C)C(=O)N[C@@H](C)C(=O)N[C@@H](Cc1ccc(O)cc1)C(=O)N2` (H-CVAY[AllylGly]IEHH[AllylGly]WTC-OH; disulfide 1-13; staple (E) 5-10): the Activity was 189%.

`CC(C)[C@@H]1NC(=O)[C@@H](N)CSSC[C@@H](C(=O)O)NC(=O)[C@H]([C@@H](C)O)NC(=O)[C@H](Cc2c[nH]c3ccccc23)NC(=O)CCCCCCCNC(=O)[C@H](Cc2ccc(O)cc2)NC(=O)[C@H](C)NC1=O` (H-CVAY[Aoc]WTC-OH; disulfide 1-8): the result was inactive.
